In paper PMC7445743 (Journal of Medicinal Chemistry, 2020):
Counter-ions that a name gives are not always drawn.

Experiments:
CAMK1G = CAMK1G (Homo sapiens, UniProt Q96NX5); details: supplement CSV
CAMK2A = CAMK2A (Homo sapiens, UniProt Q9UQM7); details: supplement CSV
CaMK4 = target: T1, CaMK4 (Homo sapiens, UniProt Q16566); details: supplement CSV
T1 sequence (Q16566 1-473): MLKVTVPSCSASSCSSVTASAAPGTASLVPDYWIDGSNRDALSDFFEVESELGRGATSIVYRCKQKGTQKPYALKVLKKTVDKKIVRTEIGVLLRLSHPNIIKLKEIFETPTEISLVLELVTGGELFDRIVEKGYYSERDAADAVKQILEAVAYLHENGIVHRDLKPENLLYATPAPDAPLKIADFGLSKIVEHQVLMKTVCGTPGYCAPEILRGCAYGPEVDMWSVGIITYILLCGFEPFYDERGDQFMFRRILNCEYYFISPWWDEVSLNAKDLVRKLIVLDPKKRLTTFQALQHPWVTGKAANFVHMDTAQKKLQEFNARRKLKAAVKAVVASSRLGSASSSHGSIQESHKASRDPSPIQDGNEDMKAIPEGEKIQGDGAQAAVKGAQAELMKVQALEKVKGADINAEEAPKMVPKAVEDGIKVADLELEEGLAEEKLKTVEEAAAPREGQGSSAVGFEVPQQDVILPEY

DAPK3 = DAPK3 (Homo sapiens, UniProt O43293); details: supplement CSV
CK2a = CK2a (Homo sapiens, UniProt P68400); details: supplement CSV
DCLK1 = target: T2, DCLK1 (Homo sapiens, UniProt O15075); details: supplement CSV
T2 sequence (O15075 1-740): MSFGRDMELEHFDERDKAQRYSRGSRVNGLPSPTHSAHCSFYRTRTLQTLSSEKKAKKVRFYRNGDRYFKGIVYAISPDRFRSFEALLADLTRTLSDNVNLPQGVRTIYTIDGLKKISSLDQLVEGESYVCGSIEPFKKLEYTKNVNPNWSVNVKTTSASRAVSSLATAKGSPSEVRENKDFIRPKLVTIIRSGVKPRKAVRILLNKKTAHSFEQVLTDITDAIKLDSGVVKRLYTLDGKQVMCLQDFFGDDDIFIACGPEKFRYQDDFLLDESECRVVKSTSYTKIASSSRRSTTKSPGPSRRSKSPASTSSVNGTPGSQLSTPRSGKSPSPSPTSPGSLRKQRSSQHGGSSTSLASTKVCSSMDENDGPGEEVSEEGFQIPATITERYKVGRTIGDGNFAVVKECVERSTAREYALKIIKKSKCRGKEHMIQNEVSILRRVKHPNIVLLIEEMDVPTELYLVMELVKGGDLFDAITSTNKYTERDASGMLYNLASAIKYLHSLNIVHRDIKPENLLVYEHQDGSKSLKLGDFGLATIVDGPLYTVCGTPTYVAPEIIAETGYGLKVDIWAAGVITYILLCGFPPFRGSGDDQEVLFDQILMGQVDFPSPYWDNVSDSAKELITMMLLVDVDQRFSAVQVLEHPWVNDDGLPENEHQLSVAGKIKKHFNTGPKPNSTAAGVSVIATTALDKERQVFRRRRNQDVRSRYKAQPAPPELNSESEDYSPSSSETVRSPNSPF

SYK = SYK (Homo sapiens, UniProt P43405); details: supplement CSV
ABL = ABL (Homo sapiens, UniProt P00519); details: supplement CSV
PIM1 = PIM1 (Homo sapiens, UniProt P11309); details: supplement CSV
DAPK1 = DAPK1 (Homo sapiens, UniProt P53355); details: supplement CSV
PAK4 = PAK4 (Homo sapiens, UniProt O96013); details: supplement CSV
GSK3β = GSK3β (Homo sapiens, UniProt P49841); details: supplement CSV
PKNB(M.tuberculosis) = target: T3, PKNB(M.tuberculosis) (Mycobacterium tuberculosis, UniProt P9WI81); test: KINOMEscan; assay type: binding
T3 construct: purchased DiscoverX (Eurofins) KINOMEscan scanMAX; first lines in-house DSF / ADP-Glo

[1] = system: kinase panel (468 Assays Tested); test: Pan-kinome selectivity, competitive binding assay (KINOMEscan); details: for S-Score(35): 1 μM

Sequence of DAPK3 (O43293 whole entry): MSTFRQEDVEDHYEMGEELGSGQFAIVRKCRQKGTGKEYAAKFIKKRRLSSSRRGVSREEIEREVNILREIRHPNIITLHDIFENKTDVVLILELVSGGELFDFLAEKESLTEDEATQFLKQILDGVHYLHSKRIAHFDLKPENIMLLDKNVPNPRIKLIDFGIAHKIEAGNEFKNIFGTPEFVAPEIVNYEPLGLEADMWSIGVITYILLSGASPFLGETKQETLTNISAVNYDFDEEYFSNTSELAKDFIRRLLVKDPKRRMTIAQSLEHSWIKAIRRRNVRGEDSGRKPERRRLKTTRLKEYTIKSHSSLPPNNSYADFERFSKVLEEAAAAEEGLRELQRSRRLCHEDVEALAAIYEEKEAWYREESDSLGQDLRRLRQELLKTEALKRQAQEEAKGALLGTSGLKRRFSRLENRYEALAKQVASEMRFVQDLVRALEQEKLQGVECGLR
Sequence of CAMK2A (Q9UQM7 whole entry): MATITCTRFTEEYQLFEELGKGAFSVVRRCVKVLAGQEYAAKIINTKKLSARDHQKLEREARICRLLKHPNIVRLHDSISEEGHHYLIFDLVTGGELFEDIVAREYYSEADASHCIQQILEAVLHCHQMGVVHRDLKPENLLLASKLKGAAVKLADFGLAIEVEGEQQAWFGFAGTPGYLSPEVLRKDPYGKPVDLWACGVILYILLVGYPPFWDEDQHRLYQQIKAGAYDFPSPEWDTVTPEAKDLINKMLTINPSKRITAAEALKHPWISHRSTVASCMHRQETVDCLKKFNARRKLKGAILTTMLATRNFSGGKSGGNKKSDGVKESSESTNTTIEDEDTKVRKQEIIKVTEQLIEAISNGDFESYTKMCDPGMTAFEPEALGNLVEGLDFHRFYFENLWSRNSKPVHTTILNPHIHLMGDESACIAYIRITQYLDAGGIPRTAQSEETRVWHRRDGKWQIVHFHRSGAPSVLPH
Sequence of CAMK1G (Q96NX5 whole entry): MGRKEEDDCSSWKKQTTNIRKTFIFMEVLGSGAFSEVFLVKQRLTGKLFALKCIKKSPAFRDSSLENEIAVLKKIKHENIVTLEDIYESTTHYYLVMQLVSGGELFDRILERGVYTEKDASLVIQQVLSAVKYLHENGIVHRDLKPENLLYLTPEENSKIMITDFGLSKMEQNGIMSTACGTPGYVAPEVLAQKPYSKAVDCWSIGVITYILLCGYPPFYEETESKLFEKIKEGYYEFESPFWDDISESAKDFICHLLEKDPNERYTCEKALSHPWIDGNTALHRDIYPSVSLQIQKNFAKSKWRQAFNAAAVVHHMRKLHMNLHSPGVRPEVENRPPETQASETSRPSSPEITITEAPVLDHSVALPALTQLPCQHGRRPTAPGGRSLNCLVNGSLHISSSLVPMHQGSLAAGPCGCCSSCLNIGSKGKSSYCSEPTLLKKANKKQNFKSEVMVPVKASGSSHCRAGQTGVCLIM
Sequence of ABL (P00519 whole entry, species assumed): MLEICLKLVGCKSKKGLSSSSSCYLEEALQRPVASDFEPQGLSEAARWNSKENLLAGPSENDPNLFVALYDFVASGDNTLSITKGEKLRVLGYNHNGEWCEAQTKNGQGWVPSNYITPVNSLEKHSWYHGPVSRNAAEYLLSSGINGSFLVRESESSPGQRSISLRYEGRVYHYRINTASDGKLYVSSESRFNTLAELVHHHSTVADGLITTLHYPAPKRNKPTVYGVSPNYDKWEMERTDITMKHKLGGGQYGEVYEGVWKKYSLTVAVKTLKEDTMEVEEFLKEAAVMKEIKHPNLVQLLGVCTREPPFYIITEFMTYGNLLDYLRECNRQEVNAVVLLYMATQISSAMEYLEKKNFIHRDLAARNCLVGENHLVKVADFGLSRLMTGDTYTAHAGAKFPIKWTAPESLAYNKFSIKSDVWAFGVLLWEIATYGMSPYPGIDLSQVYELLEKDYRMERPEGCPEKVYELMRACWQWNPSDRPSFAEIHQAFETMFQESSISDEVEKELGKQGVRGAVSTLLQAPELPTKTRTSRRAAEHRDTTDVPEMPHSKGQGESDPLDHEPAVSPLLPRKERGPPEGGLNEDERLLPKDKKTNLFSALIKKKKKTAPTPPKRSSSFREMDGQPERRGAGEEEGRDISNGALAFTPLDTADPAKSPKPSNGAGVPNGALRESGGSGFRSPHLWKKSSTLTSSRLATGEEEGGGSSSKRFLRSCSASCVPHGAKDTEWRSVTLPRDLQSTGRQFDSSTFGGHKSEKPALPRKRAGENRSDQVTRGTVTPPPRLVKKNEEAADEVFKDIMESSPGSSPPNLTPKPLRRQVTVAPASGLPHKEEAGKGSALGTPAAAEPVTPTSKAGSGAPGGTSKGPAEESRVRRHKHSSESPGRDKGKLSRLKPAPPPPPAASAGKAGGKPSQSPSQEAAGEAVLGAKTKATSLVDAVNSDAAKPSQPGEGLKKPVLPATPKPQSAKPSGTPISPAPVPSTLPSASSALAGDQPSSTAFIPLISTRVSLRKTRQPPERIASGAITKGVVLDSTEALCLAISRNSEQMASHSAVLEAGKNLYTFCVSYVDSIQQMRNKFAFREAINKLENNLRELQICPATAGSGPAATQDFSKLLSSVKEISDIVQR
Sequence of GSK3β (P49841 whole entry, species assumed): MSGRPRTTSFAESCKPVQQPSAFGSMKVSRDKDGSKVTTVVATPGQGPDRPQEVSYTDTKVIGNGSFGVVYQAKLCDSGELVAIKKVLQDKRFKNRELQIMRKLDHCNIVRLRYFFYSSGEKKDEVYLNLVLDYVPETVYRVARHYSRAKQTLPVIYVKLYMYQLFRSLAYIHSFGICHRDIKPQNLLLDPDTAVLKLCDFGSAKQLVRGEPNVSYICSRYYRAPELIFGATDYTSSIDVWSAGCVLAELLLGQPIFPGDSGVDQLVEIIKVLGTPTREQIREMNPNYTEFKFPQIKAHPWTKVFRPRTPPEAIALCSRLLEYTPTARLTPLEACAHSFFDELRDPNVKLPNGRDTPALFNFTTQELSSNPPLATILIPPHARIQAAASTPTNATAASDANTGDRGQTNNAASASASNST
Sequence of PAK4 (O96013 whole entry): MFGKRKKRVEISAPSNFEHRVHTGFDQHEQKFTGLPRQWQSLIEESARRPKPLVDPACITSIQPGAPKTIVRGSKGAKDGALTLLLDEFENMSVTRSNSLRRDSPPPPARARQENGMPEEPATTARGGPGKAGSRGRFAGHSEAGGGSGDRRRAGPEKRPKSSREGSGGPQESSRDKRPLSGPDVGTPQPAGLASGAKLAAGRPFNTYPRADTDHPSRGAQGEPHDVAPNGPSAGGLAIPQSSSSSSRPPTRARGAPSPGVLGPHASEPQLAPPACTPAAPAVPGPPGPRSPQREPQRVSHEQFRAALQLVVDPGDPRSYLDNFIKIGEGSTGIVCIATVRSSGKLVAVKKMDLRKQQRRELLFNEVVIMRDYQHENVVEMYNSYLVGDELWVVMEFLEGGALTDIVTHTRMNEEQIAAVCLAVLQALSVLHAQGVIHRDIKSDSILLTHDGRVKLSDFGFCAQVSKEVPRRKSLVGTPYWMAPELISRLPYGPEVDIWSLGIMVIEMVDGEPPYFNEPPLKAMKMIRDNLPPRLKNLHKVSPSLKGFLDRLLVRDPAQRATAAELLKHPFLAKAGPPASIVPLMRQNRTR
T3 sequence (P9WI81 whole entry): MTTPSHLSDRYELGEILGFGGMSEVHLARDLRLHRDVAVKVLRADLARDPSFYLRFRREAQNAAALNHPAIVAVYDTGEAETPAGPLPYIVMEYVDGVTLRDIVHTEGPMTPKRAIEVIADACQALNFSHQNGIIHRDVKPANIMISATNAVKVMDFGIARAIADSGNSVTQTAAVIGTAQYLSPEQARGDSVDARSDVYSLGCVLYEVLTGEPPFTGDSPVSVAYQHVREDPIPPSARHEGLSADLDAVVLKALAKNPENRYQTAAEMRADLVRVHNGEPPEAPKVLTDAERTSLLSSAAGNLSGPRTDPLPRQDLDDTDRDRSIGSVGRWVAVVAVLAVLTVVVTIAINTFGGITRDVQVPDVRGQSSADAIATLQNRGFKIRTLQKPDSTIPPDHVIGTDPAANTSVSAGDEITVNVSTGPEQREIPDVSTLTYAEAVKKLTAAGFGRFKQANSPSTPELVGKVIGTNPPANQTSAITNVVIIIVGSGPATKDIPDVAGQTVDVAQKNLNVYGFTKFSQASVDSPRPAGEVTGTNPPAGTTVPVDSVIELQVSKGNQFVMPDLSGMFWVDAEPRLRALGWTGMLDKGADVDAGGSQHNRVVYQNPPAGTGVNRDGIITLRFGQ
Sequence of CK2a (P68400 whole entry): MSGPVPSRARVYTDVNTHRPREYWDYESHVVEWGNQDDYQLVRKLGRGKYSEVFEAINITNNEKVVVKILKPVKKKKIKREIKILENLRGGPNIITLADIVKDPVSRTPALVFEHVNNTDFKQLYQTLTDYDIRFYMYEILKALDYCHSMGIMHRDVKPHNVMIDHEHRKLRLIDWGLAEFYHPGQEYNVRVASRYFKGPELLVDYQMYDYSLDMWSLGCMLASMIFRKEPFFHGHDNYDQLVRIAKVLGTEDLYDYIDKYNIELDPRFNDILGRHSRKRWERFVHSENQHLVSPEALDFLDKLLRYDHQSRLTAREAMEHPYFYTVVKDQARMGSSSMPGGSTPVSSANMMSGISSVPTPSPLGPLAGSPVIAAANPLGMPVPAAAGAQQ
Sequence of PIM1 (P11309 whole entry): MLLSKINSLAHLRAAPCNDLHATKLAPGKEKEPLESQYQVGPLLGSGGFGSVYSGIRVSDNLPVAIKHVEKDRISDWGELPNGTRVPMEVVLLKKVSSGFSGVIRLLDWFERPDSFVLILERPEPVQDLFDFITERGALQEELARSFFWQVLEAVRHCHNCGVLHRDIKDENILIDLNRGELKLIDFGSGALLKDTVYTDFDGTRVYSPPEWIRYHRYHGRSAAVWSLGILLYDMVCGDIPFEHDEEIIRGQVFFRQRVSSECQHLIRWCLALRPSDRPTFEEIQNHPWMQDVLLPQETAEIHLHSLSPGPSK

SMILES | CAMK1G Tm (CAMK1G) | CAMK2A Tm (CAMK2A) | CAMK4 Tm (CaMK4) | DAPK3 Tm (DAPK3) | CK2alpha Tm (CK2a) | DCAMKL1 Tm (DCLK1) | SYK Tm (SYK) | ABL1 Tm (ABL) | PIM1 Tm (PIM1) | DAPK1 Tm (DAPK1) | PAK4 Tm (PAK4) | GSK3B Tm (GSK3β) | remaining binding at 1 µM (PKNB(M.tuberculosis)) [%] | S-Score(35) [1] | wild-type kinases inhibited by >90% ([1]; competitive binding assay at 1 μM)
NC(=O)c1cnc(N2CCCC(N)C2)nc1Nc1cccc(C(F)(F)F)c1 (racemic) [Compound 6, (rac)-2-(3-Aminopiperidin-1-yl)-4-((3-(trifluoromethyl)phenyl)amino)pyrimidine-5-carboxamide Hydrochloride] | 8.82 0C | 1.21 0C | – | – | – | – | – | – | – | – | – | – | – | – | –
NCCNc1ncc(C(N)=O)c(Nc2cccc(C(F)(F)F)c2)n1 [Compound 1, 2-((2-Aminoethyl)amino)-4-((3-(trifluoromethyl)phenyl)amino)pyrimidine-5-carboxamide hydrochloride, reference compound] | 4.11 0C | 0.21 0C | 1.34 0C | 4.05 0C | 0.87 0C | 0.11 0C | 7.51 0C | 1.33 0C | 1 0C | 2.33 0C | 4.62 0C | 3.4 0C | – | – | –
CNC(=O)c1cnc(NCCN)nc1Nc1cccc(C(F)(F)F)c1 [Compound 2, 2-((2-Aminoethyl)amino)-N-methyl-4-((3-(trifluoromethyl)phenyl)amino)pyrimidine-5-carboxamide, reference compound] | 0.15 0C | -0.22 0C | – | – | – | – | – | – | – | – | – | – | – | – | –
CN(CCN)c1ncc(C(N)=O)c(Nc2cccc(C(F)(F)F)c2)n1 [Compound 3, 2-((2-Aminoethyl)(methyl)amino)-4-((3-(trifluoromethyl)phenyl)amino)pyrimidine-5-carboxamide Hydrochloride] | 4.91 0C | 0.49 0C | – | – | 1.26 0C | – | – | 1.75 0C | 4.42 0C | 3.2 0C | 2.1 0C | – | – | – | –
CNCCN(C)c1ncc(C(N)=O)c(Nc2cccc(C(F)(F)F)c2)n1 [Compound 4, 2-(Methyl(2-(methylamino)ethyl)amino)-4-((3-(trifluoromethyl)phenyl)amino)pyrimidine-5-carboxamide Hydrochloride] | 1.13 0C | 0.1 0C | – | – | – | – | – | – | – | – | – | – | – | – | –
CN(C)CCN(C)c1ncc(C(N)=O)c(Nc2cccc(C(F)(F)F)c2)n1 [Compound 5, 2-((2-(Dimethylamino)ethyl)(methyl)amino)-4-((3-(trifluoromethyl)phenyl)amino)pyrimidine-5-carboxamide Hydrochloride] | 2.78 0C | 0.29 0C | – | – | – | – | – | – | – | – | – | – | – | – | –
NC(=O)c1cnc(N2CCC[C@H](N)C2)nc1Nc1cccc(C(F)(F)F)c1 [Compound 8, (S)-2-(3-Aminopiperidin-1-yl)-4-((3-(trifluoromethyl)phenyl)amino)pyrimidine-5-carboxamide Hydrochloride] | 9.55 0C | 1.08 0C | – | – | – | – | – | – | – | – | 4.73 0C | – | 84 | 0.12 | 11
NC(=O)c1cnc(N2CCC[C@H](N)C2)nc1Nc1cc(C(F)(F)F)cc(C(F)(F)F)c1 [Compound 9] | 16.18 0C | 1.09 0C | 7.06 0C | 8.72 0C | – | 1.22 0C | – | – | – | – | 3.17 0C | -0.47 0C | – | – | –
CC(C)(C)c1cccc(Nc2nc(N3CCC[C@H](N)C3)ncc2C(N)=O)c1 [Compound 10, (S)-2-(3-Aminopiperidin-1-yl)-4-((3-(tert-butyl)phenyl)amino)pyrimidine-5-carboxamide Hydrochloride] | 9.24 0C | 0.77 0C | 3.78 0C | 5.43 0C | – | 0.3 0C | – | – | – | – | 1.24 0C | 0.67 0C | – | – | –
CS(=O)(=O)c1cccc(Nc2nc(N3CCC[C@H](N)C3)ncc2C(N)=O)c1 [Compound 11, (S)-2-(3-Aminopiperidin-1-yl)-4-((3-(methylsulfonyl)phenyl)amino)pyrimidine-5-carboxamide] | 7.26 0C | 0.53 0C | 4.49 0C | 6.85 0C | – | -0.09 0C | – | – | – | – | 3.75 0C | 1.4 0C | – | – | –
NC(=O)c1cnc(N2CCC[C@H](N)C2)nc1Nc1cccc(-c2ccccc2)c1 [Compound 12, (S)-4-([1,1′-Biphenyl]-3-ylamino)-2-(3-aminopiperidin-1-yl)pyrimidine-5-carboxamide Hydrochloride] | 12.19 0C | 2.35 0C | 4.98 0C | 8.03 0C | – | 1.64 0C | – | – | – | – | 5.67 0C | 0.32 0C | – | – | –
CC(C)(C#N)c1cccc(Nc2nc(N3CCC[C@H](N)C3)ncc2C(N)=O)c1 [Compound 13, (S)-2-(3-Aminopiperidin-1-yl)-4-((3-(2-cyanopropan-2-yl)phenyl)amino)pyrimidine-5-carboxamide] | 6.35 0C | 0.6 0C | 4.38 0C | 6.82 0C | – | 0.32 0C | – | – | – | – | 1.98 0C | 0.46 0C | – | – | –
CC(C)(C)c1cc(Nc2nc(N3CCC[C@H](N)C3)ncc2C(N)=O)cc(C(C)(C)C)c1 [Compound 14, (S)-2-(3-Aminopiperidin-1-yl)-4-((3,5-di-tert-butylphenyl)amino)pyrimidine-5-carboxamide] | 10.22 0C | 0.69 0C | 6.39 0C | 4.82 0C | – | 1.34 0C | – | -0.28 0C | – | – | -0.72 0C | -0.63 0C | 97 | 0.01 | –
CC(C)c1cc(Nc2nc(N3CCC[C@H](N)C3)ncc2C(N)=O)cc(C(C)C)c1 [Compound 15, (S)-2-(3-Aminopiperidin-1-yl)-4-((3,5-diisopropylphenyl)amino)pyrimidine-5-carboxamide] | 10.33 0C | 2.19 0C | 6.46 0C | 8.08 0C | – | 1.96 0C | – | – | – | – | 4.76 0C | -0.2 0C | – | – | –
